From patent US8188078B2 (Sanofi-Aventis, priority 2007, dated 2012)

Experiments:
c-MET = target: T1, c-MET (Homo sapiens, UniProt P08581); assay: Test A: HTRF Met test in 96-well format; type: biochemical
T1 construct: The recombinant DNA His-Tev-MET (956-1390) in pFastBac(Invitrogen); His (N, cleaved yes); Tev (TEV protease site) (N, cleaved yes); made in house; host or cells: SF21 insect cells (baculovirus, pFastBac)
How it was run: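 The kinase was the Sf21-expressed MET cytoplasmic domain (956–1390), His tag removed, used at 5 nM with compound (0.17 nM–10 µM, 3% DMSO) in 10 mM MOPS pH 7.4. Poly-GAT 1 µg/ml, 10 µM ATP and 5 mM MgCl2 reacted 10 min at RT. After an EDTA stop, phosphotyrosine was detected by HTRF (665/620 ratio).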

MKN45 cells = assay: Test D: cellular proliferation by 14C-thymidine pulse, MKN45 cells; type: cell-based; conditions: Homo sapiens, MKN-45, cellular proliferation by 14C-thymidine pulse; cell line not stated (HCT116 or MKN45)
How it was run: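 MKN45 cells (7500/well, RPMI + 10% foetal calf serum) treated with 10 concentrations, 10000 to 0.3 nM in 3-fold steps, duplicate. 14C-thymidine (0.1 μCi/well) added at 72 h; incorporation counted after 24 h pulse, 96 h total treatment.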

RON = RON (Homo sapiens, UniProt Q04912); assay: Test B: HTRF RON test in 96-well format; type: biochemical
Chain of RON (Q04912 25-1400): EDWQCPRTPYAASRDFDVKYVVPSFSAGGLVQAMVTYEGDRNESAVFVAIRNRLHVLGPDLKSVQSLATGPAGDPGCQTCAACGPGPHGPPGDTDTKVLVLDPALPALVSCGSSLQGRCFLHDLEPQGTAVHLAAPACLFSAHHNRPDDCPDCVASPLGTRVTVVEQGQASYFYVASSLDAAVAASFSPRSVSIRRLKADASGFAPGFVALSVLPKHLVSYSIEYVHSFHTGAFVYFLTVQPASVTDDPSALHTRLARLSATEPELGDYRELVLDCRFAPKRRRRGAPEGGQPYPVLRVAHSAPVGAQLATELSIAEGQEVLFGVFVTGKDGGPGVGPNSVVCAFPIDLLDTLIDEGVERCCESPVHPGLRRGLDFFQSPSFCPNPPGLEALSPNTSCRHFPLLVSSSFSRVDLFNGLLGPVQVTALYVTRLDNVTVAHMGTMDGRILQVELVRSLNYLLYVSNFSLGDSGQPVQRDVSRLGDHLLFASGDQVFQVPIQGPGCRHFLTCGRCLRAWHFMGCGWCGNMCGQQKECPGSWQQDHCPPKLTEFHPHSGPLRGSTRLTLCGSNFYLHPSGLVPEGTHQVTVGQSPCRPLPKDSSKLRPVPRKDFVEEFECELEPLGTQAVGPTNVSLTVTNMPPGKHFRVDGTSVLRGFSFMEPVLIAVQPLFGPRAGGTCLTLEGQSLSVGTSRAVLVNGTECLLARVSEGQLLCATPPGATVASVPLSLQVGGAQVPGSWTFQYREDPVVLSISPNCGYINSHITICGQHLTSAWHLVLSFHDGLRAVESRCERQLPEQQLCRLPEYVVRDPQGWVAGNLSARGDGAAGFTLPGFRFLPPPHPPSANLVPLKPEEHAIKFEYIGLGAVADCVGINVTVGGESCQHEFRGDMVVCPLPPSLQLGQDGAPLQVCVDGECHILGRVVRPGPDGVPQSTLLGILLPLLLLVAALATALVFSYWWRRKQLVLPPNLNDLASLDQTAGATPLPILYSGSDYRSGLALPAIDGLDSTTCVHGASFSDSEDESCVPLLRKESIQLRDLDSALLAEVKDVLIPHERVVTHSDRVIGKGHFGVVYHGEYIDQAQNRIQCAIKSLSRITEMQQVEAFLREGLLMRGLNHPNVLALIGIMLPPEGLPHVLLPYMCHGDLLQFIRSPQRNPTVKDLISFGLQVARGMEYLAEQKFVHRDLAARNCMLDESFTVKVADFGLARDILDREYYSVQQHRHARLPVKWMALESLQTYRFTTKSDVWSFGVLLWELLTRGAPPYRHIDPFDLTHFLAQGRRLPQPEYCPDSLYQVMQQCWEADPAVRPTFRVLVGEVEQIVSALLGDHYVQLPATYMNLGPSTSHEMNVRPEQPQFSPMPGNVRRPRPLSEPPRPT
How it was run: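 RON 5 nM pre-incubated 30 min at RT with compound (0.17 nM–10 μM final, 3% DMSO) in MOPS 10 mM pH 7, DTT, Tween 20. Reaction with biotinylated poly-(GAT) 1 μg/ml, ATP 10 μM, MgCl2 5 mM, 30 min RT. Eu-anti-pTyr/streptavidin-XL665 HTRF, 665/620 ratio gives % inhibition, IC50.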

T1 sequence (P08581 956-1390): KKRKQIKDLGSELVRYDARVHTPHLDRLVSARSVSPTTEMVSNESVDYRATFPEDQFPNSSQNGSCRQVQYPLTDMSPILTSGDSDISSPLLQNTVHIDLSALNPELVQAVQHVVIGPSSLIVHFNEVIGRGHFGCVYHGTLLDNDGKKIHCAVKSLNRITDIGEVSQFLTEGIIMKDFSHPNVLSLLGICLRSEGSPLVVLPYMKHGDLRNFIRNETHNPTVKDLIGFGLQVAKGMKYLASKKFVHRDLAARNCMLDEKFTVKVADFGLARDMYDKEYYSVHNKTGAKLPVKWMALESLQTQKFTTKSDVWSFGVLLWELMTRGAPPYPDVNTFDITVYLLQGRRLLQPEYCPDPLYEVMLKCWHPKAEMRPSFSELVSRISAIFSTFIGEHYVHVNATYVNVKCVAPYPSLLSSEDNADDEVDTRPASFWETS

| Structure (SMILES) | IC50 (c-MET) | IC50 (MKN45 cells) | IC50 (RON) |
| --- | --- | --- | --- |
| CC(Oc1ccc2nc(NC(=O)NCCN3CCCC3)sc2c1)c1c(Cl)ccc(F)c1Cl (stereo not drawn) [Example 51, 1-{6-[1-(2,6-dichloro-3-fluorophenyl)ethoxy]-1,3-benzothiazol-2-yl}-3-(2-pyrrolidin-1-ylethyl)urea] | < 100 nM | 500 to 10000 nM | 500 to 10000 nM |
| CC(Oc1ccc2nc(NC(=O)NCCC3CCCN3C)sc2c1)c1c(Cl)ccc(F)c1Cl (stereo not drawn) [Example 53, 1-{6-[1-(2,6-dichloro-3-fluorophenyl)ethoxy]-1,3-benzothiazol-2-yl}-3-[2-(1-methylpyrrolidin-2-yl)ethyl]urea] | < 100 nM | < 500 nM | < 500 nM |
| CC(Oc1ccc2nc(NC(=O)NCCN3CCCCCC3)sc2c1)c1c(Cl)ccc(F)c1Cl (stereo not drawn) [Example 54, 1-(2-azepan-1-ylethyl)-3-{6-[1-(2,6-dichloro-3-fluorophenyl)ethoxy]-1,3-benzothiazol-2-yl}urea] | < 100 nM | 500 to 10000 nM | 500 to 10000 nM |
| CC(Oc1ccc2nc(NC(=O)NCCN3CCN(C)CC3)sc2c1)c1c(Cl)ccc(F)c1Cl (stereo not drawn) [Example 55, 1-{6-[1-(2,6-dichloro-3-fluorophenyl)ethoxy]-1,3-benzothiazol-2-yl}-3-[2-(4-methylpiperazin-1-yl)ethyl]urea] | < 100 nM | < 500 nM | < 500 nM |
| CC(Oc1ccc2nc(NC(=O)NCCN3C(C)CCCC3C)sc2c1)c1c(Cl)ccc(F)c1Cl (stereo not drawn) [Example 56, 1-{6-[1-(2,6-dichloro-3-fluorophenyl)ethoxy]-1,3-benzothiazol-2-yl}-3-[2-(2,6-dimethylpiperidin-1-yl)ethyl]urea] | < 100 nM | < 500 nM | 500 to 10000 nM |
| CC(Oc1ccc2nc(NC(=O)NCc3ccncc3)sc2c1)c1c(Cl)ccc(F)c1Cl (stereo not drawn) [Example 57, 1-{6-[1-(2,6-dichloro-3-fluorophenyl)ethoxy]-1,3-benzothiazol-2-yl}-3-(pyridin-4-ylmethyl)urea] | < 100 nM | > 10000 nM | 500 to 10000 nM |
| CC(Oc1ccc2nc(NC(=O)NCc3ccccn3)sc2c1)c1c(Cl)ccc(F)c1Cl (stereo not drawn) [Example 58, 1-{6-[1-(2,6-dichloro-3-fluorophenyl)ethoxy]-1,3-benzothiazol-2-yl}-3-(pyridin-2-ylmethyl)urea] | < 100 nM | > 10000 nM | 500 to 10000 nM |
| CC(Oc1ccc2nc(NC(=O)NCc3cccnc3)sc2c1)c1c(Cl)ccc(F)c1Cl (stereo not drawn) [Example 59, 1-{6-[1-(2,6-dichloro-3-fluorophenyl)ethoxy]-1,3-benzothiazol-2-yl}-3-(pyridin-3-ylmethyl)urea] | < 100 nM | 500 to 10000 nM | 500 to 10000 nM |
| CC(Oc1ccc2nc(NC(=O)NCCN3CCOCC3)sc2c1)c1c(F)ccc(F)c1F (stereo not drawn) [Example 60, 1-(2-morpholin-4-ylethyl)-3-{6-[1-(2,3,6-trifluorophenyl)ethoxy]-1,3-benzothiazol-2-yl}urea] | < 100 nM | > 10000 nM | 500 to 10000 nM |
| CC(Oc1ccc2nc(NC(=O)NCCN3CCOCC3)sc2c1)c1c(F)ccc(Cl)c1Cl (stereo not drawn) [Example 61, 1-{6-[1-(2,3-dichloro-6-fluorophenyl)ethoxy]-1,3-benzothiazol-2-yl}-3-(2-morpholin-4-ylethyl)urea] | < 100 nM | < 500 nM | < 500 nM |
| O=C(NCCN1CCOCC1)Nc1nc2ccc(OC(c3c(Cl)cccc3Cl)C(F)(F)F)cc2s1 (stereo not drawn) [Example 64, 1-{6-[1-(2,6-dichlorophenyl)-2,2,2-trifluoroethoxy]-1,3-benzothiazol-2-yl}-3-(2-morpholin-4-ylethyl)urea] | < 100 nM | > 10000 nM | 500 to 10000 nM |
| CC(Oc1ccc2nc(NC(=O)CCCN3CCOCC3)sc2c1)c1c(Cl)ccc(F)c1Cl (stereo not drawn) [Example 65, N-{6-[1-(2,6-dichloro-3-fluorophenyl)ethoxy]-1,3-benzothiazol-2-yl}-4-(morpholin-4-yl)butanamide] | < 100 nM | 500 to 10000 nM | 500 to 10000 nM |
| CC(Oc1ccc2nc(NC(=O)C3CC3)sc2c1)c1c(Cl)ccc(F)c1Cl (stereo not drawn) [Example 66, N-{6-[1-(2,6-dichloro-3-fluorophenyl)ethoxy]-1,3-benzothiazol-2-yl}cyclopropanecarboxamide] | < 100 nM | 500 to 10000 nM | 500 to 10000 nM |
| CC(Oc1cc2sc(NC(=O)CCCN3CCCC3)nc2cc1F)c1c(Cl)ccc(F)c1Cl (stereo not drawn) [Example 68, N-{6-[1-(2,6-dichloro-3-fluorophenyl)ethoxy]-5-fluoro-1,3-benzothiazol-2-yl}-4-(pyrrolidin-1-yl)butanamide] | < 100 nM | 500 to 10000 nM | 500 to 10000 nM |
| CC(Oc1cc2sc(NC(=O)CN3CCNCC3)nc2cc1F)c1c(Cl)ccc(F)c1Cl (stereo not drawn) [Example 69, N-{6-[1-(2,6-dichloro-3-fluorophenyl)ethoxy]-5-fluoro-1,3-benzothiazol-2-yl}-2-(piperazin-1-yl)acetamide] | < 100 nM | 500 to 10000 nM | 500 to 10000 nM |
| CCN(CC)CCCOC(=O)Nc1nc2cc(F)c(OC(C)c3c(Cl)ccc(F)c3Cl)cc2s1 (stereo not drawn) [Example 70] | < 100 nM | 500 to 10000 nM | 500 to 10000 nM |
| CC(Oc1ccc2nc(NC(=O)OCCN3CCOCC3)sc2c1)c1c(Cl)ccc(F)c1Cl (stereo not drawn) [Example 74] | < 100 nM | 500 to 10000 nM | 500 to 10000 nM |
| CCN1CCN(CCNC(=O)Nc2nc3cc(F)c(OC(C)c4c(Cl)ccc(F)c4Cl)cc3s2)CC1 (stereo not drawn) [Example 100, 1-{6-[1-(2,6-dichloro-3-fluorophenyl)ethoxy]-5-fluoro-1,3-benzothiazol-2-yl}-3-[2-(4-ethylpiperazin-1-yl)ethyl]urea] | < 100 nM | < 500 nM | < 500 nM |
| CC(Oc1cc2sc(NC(=O)NCCOCC3CC3)nc2cc1F)c1c(Cl)ccc(F)c1Cl (stereo not drawn) [Example 103, 1-[2-(cyclopropylmethoxy)ethyl]-3-{6-[1-(2,6-dichloro-3-fluorophenyl)ethoxy]-5-fluoro-1,3-benzothiazol-2-yl}urea] | < 100 nM | 500 to 10000 nM | 500 to 10000 nM |
| COCCCNC(=O)Nc1nc2cc(F)c(OC(C)c3c(Cl)ccc(F)c3Cl)cc2s1 (stereo not drawn) [Example 104, 1-{6-[1-(2,6-dichloro-3-fluorophenyl)ethoxy]-5-fluoro-1,3-benzothiazol-2-yl}-3-(3-methoxypropyl)urea] | < 100 nM | 500 to 10000 nM | < 500 nM |
| CC(Oc1cc2sc(NC(=O)NCCCO)nc2cc1F)c1c(Cl)ccc(F)c1Cl (stereo not drawn) [Example 105, 1-{6-[1-(2,6-dichloro-3-fluorophenyl)ethoxy]-5-fluoro-1,3-benzothiazol-2-yl}-3-(3-hydroxypropyl)urea] | < 100 nM | 500 to 10000 nM | < 500 nM |
| CC(Oc1cc2sc(NC(=O)NCCN3CCOCC3)nc2cc1Cl)c1c(Cl)ccc(F)c1Cl (stereo not drawn) [Example 106, 1-{5-chloro-6-[1-(2,6-dichloro-3-fluorophenyl)ethoxy]-1,3-benzothiazol-2-yl}-3-[2-(morpholin-4-yl)ethyl]urea] | < 100 nM | 500 to 10000 nM | 500 to 10000 nM |
| CC(Oc1ccc2nc(NC(=O)NCCN3CCN(C)CC3)sc2c1)c1c(F)ccc(Cl)c1Cl (stereo not drawn) [Example 108, 1-{6-[1-(2,3-dichloro-6-fluorophenyl)ethoxy]-1,3-benzothiazol-2-yl}-3-[2-(4-methylpiperazin-1-yl)ethyl]urea] | < 100 nM | 500 to 10000 nM | < 500 nM |
